Measured values as given in US10428080B2, “TBK/IKK inhibitor compounds and uses thereof” (Merck Patent GmbH, priority 2015, dated 2019).
pIC50: −log10 of the molar value.

Key:
[1] = biological target: T1, IKKε (Homo sapiens, UniProt Q14164); assay: IKKe Biochemical Assay; conditions: read-out: IKKε IC50
T1 sequence (Q14164 1-716): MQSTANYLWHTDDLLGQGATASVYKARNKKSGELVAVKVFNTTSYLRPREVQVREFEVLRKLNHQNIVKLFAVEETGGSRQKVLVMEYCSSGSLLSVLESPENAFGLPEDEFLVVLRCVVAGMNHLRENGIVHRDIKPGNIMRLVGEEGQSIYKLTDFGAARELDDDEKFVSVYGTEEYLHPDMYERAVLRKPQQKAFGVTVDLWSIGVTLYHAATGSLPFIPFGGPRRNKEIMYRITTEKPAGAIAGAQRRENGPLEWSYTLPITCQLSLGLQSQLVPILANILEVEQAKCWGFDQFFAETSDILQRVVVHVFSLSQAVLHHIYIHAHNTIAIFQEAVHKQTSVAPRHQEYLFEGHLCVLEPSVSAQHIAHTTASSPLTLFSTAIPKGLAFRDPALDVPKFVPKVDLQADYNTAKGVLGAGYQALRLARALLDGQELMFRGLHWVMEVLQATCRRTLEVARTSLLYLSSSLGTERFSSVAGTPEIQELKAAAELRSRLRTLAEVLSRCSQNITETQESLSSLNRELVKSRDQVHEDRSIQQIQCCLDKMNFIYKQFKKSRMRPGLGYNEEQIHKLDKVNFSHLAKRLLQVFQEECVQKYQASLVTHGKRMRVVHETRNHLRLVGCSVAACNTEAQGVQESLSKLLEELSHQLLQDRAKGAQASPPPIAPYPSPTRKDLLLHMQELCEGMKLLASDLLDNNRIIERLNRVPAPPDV
Summary of the method: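 Activity was measured as mobility-shift separation of phosphorylated from unphosphorylated substrate on a LabChip EZ Reader. Compound was titrated from 30 uM final in 10 points, 1:4 steps, with 1% DMSO, and enzyme plus substrate reacted 90 min at 25° C before stop buffer. Control wells held 10 uM staurosporine.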

[2] = test system: phosphorylation of the IRF-3 protein in MDA-MB-468 cells; assay: pIRF3 immunocytochemistry cell based assay; conditions: Homo sapiens; MDA-MB-468 cells, Poly(I:C) stimulation; read-out: pIRF3 IC50
Summary of the method: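 After 2 h stimulation with Poly(I:C) (10 ug/ml), following 1 h compound pre-treatment (10-point, 3-fold dilution, top 10 uM), MDA-MB-468 cells were fixed and stained with anti-pIRF3 antibody. pIRF3 fluorescence was normalized to PI staining or cell count on an Acumen cytometer. IC50 curves were derived from this.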

[3] = biological target: T2, TBK1 (Homo sapiens, UniProt Q9UHD2); assay: TBK Biochemical Assay; conditions: read-out: TBK1 IC50
T2 sequence (Q9UHD2 1-729): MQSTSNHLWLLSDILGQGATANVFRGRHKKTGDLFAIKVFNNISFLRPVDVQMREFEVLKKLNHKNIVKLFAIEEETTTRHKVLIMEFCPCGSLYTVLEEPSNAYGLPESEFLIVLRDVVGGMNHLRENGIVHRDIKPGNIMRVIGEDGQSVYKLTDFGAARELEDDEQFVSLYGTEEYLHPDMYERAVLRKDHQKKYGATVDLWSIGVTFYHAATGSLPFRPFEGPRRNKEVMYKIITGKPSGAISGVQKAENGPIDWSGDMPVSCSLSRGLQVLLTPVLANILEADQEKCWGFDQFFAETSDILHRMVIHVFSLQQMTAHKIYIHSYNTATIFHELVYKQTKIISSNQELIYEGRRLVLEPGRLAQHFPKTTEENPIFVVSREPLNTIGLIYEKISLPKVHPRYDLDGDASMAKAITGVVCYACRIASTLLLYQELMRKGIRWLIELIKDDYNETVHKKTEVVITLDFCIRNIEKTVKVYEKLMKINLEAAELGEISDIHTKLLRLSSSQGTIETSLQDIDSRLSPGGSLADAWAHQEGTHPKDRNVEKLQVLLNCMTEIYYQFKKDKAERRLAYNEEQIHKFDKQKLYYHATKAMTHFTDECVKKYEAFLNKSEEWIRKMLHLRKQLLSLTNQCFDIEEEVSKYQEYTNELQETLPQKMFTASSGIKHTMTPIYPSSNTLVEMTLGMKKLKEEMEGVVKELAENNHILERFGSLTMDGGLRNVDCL
Summary of the method: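 Caliper LabChip mobility-shift readout of substrate and product after 90 min of TBK1 reaction at 25° C and stop-buffer addition. Compounds tested in 1:4 serial dilution over 10 points from 30 uM final at 1% DMSO; staurosporine 10 uM final defines full inhibition.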

SMILES	pIC50 [1]	pIC50 [2]	pIC50 [3]
COc1cc(C(=O)N(C)C)ncc1-c1cc2nccc(-c3ccc(OC4CCN(C)CC4(F)F)c(C#N)c3)c2o1 (stereo not drawn) [Compound 419, 5-(7-[3-cyano-4-[(3,3-difluoro-1-methylpiperidin-4-yl)oxy]phenyl]furo[3,2-b]pyridin-2-yl)-4-methoxy-N,N-dimethylpyridine-2-carboxamide]	> 7.00	6.00 to 7.00	> 7.00
COc1cc(C(=O)NC(C)(C)CCN(C)C)ncc1-c1cc2nccc(-c3ccc(NC4CCOCC4)c(C#N)c3)c2o1 [Compound 423, 5-(7-[3-cyano-4-[(oxan-4-yl)amino]phenyl]furo[3,2-b]pyridin-2-yl)-N-[4-(dimethylamino)-2-methylbutan-2-yl]-4-methoxypyridine-2-carboxamide]	> 7.00	6.00 to 7.00	> 7.00
COc1cc(C(=O)N(C)C)cnc1-c1cc2nccc(-c3ccc(OC4CCN(C)C4)c(C#N)c3)c2o1 (stereo not drawn) [Compound 426, 6-(7-[3-cyano-4-[(1-methylpyrrolidin-3-yl)oxy]phenyl]furo[3,2-b]pyridin-2-yl)-5-methoxy-N,N-dimethylpyridine-3-carboxamide]	6.00 to 7.00	6.00 to 7.00	6.00 to 7.00
COc1cc(C(=O)N(C)C)ncc1-c1cc2nccc(-c3ccc(OC4CCN(C)C4)c(C#N)c3)c2o1 (stereo not drawn) [Compound 430, 5-(7-[3-cyano-4-[(1-methylpyrrolidin-3-yl)oxy]phenyl]furo[3,2-b]pyridin-2-yl)-4-methoxy-N,N-dimethylpyridine-2-carboxamide]	6.00 to 7.00	6.00 to 7.00	6.00 to 7.00
COc1cc(C(=O)N(C)C)ncc1-c1cc2nccc(-c3ccc(NC4CCN(C)C4)c(C#N)c3)c2o1 (stereo not drawn) [Compound 434, 5-(7-[3-cyano-4-[(1-methylpyrrolidin-3-yl)amino]phenyl]furo[3,2-b]pyridin-2-yl)-4-methoxy-N,N-dimethylpyridine-2-carboxamide]	> 7.00	> 7.00	> 7.00
COc1cc(C(=O)N2CC3CC(C2)O3)cnc1-c1cc2nccc(-c3ccc(OC4CCOCC4)c(C#N)c3)c2o1 [Compound 435, 5-[2-[3-methoxy-5-([6-oxa-3-azabicyclo[3.1.1]heptan-3-yl]carbonyl)pyridin-2-yl]furo[3,2-b]pyridin-7-yl]-2-(oxan-4-yloxy)benzonitrile]	> 7.00	> 7.00	> 7.00
COc1cc(C(=O)N(C)C)cnc1-c1cc2nccc(-c3ccc(NC4C5COCC54)c(C#N)c3)c2o1 (stereo not drawn) [Compound 436, 6-[7-[3-cyano-4-([3-oxabicyclo[3.1.0]hexan-6-yl]amino)phenyl]furo[3,2-b]pyridin-2-yl]-5-methoxy-N,N-dimethylpyridine-3-carboxamide]	> 7.00	> 7.00	> 7.00
COc1cc(C(=O)N(C)C)ncc1-c1cc2nccc(-c3ccc(NC4C5COCC54)c(C#N)c3)c2o1 (stereo not drawn) [Compound 437, 5-[7-[3-cyano-4-([3-oxabicyclo[3.1.0]hexan-6-yl]amino)phenyl]furo[3,2-b]pyridin-2-yl]-4-methoxy-N,N-dimethylpyridine-2-carboxamide]	> 7.00	6.00 to 7.00	> 7.00

Results, then the compound that gave them:

pIC50 [1]	pIC50 [2]	pIC50 [3]	SMILES
> 7.00	6.00 to 7.00	> 7.00	COc1cc(C(=O)N2CC3COCC3C2)cnc1-c1cc2nccc(-c3ccc(NC4CCOCC4)c(C#N)c3)c2o1 (stereo not drawn) [Compound 420, 5-[2-[5-([hexahydro-1H-furo[3,4-c]pyrrol-5-yl]carbonyl)-3-methoxypyridin-2-yl]furo[3,2-b]pyridin-7-yl]-2-[(oxan-4-yl)amino]benzonitrile]
> 7.00	> 7.00	> 7.00	COc1cc(C(=O)NC(C)(C)CCN(C)C)cnc1-c1cc2nccc(-c3ccc(NC4CCOCC4)c(C#N)c3)c2o1 [Compound 422, 6-(7-[3-cyano-4-[(oxan-4-yl)amino]phenyl]furo[3,2-b]pyridin-2-yl)-N-[4-(dimethylamino)-2-methylbutan-2-yl]-5-methoxypyridine-3-carboxamide]
6.00 to 7.00	6.00 to 7.00	6.00 to 7.00	COc1cc(C(=O)N(C)C)ncc1-c1cc2nccc(-c3ccc(OC4CN(C)C4)c(C#N)c3)c2o1 [Compound 424, 5-(7-[3-cyano-4-[(1-methylazetidin-3-yl)oxy]phenyl]furo[3,2-b]pyridin-2-yl)-4-methoxy-N,N-dimethylpyridine-2-carboxamide]
6.00 to 7.00	6.00 to 7.00	6.00 to 7.00	COc1cc(C(=O)N(C)C)cnc1-c1cc2nccc(-c3ccc(OC4CN(C)C4)c(C#N)c3)c2o1 [Compound 425, 6-(7-[3-cyano-4-[(1-methylazetidin-3-yl)oxy]phenyl]furo[3,2-b]pyridin-2-yl)-5-methoxy-N,N-dimethylpyridine-3-carboxamide]
6.00 to 7.00	6.00 to 7.00	6.00 to 7.00	COc1cc(C(=O)N(C)C)cnc1-c1cc2nccc(-c3ccc(OC4CCN(C(C)C)C4)c(C#N)c3)c2o1 (stereo not drawn) [Compound 427, 6-(7-(3-cyano-4-(1-isopropylpyrrolidin-3-yloxy)phenyl)furo[3,2-b]pyridin-2-yl)-5-methoxy-N,N-dimethylnicotinamide]
5.30 to 6.00	6.00 to 7.00	5.30 to 6.00	COc1cc(C(=O)N(C)C)ncc1-c1cc2nccc(-c3ccc(OC4CCN(C(C)C)C4)c(C#N)c3)c2o1 (stereo not drawn) [Compound 428, 5-[7-(3-cyano-4-[[1-(propan-2-yl)pyrrolidin-3-yl]oxy]phenyl)furo[3,2-b]pyridin-2-yl]-4-methoxy-N,N-dimethylpyridine-2-carboxamide]
> 7.00	6.00 to 7.00	> 7.00	COc1cc(C(=O)N(C)C)ncc1-c1cc2nccc(-c3ccc(OC4CCNC4)c(C#N)c3)c2o1 (stereo not drawn) [Compound 429, 5-[7-[3-cyano-4-(pyrrolidin-3-yloxy)phenyl]furo[3,2-b]pyridin-2-yl]-4-methoxy-N,N-dimethylpyridine-2-carboxamide]
> 7.00	> 7.00	> 7.00	COc1cc(C(=O)N(C)C)ncc1-c1cc2nccc(-c3ccc(NC4CCNC4)c(C#N)c3)c2o1 (stereo not drawn) [Compound 431, 5-(7-[3-cyano-4-[(pyrrolidin-3-yl)amino]phenyl]furo[3,2-b]pyridin-2-yl)-4-methoxy-N,N-dimethylpyridine-2-carboxamide]
> 7.00	> 7.00	> 7.00	COc1cc(C(=O)N(C)C)cnc1-c1cc2nccc(-c3ccc(NC4CCNC4)c(C#N)c3)c2o1 (stereo not drawn) [Compound 432, 6-(7-[3-cyano-4-[(pyrrolidin-3-yl)amino]phenyl]furo[3,2-b]pyridin-2-yl)-5-methoxy-N,N-dimethylpyridine-3-carboxamide]
> 7.00	> 7.00	> 7.00	COc1cc(C(=O)N(C)C)cnc1-c1cc2nccc(-c3ccc(NC4CCN(C)C4)c(C#N)c3)c2o1 (stereo not drawn) [Compound 433, 6-(7-[3-cyano-4-[(1-methylpyrrolidin-3-yl)amino]phenyl]furo[3,2-b]pyridin-2-yl)-5-methoxy-N,N-dimethylpyridine-3-carboxamide]
